Experimental data from paper PMC10906037, “Highly Enantioselective Catalysis by Enzyme Encapsulated in Metal Azolate Frameworks with Micelle-Controlled Pore Sizes” (ACS Central Science, 2024).

Target: T1, lipase CAL-B (Moesziomyces antarcticus, UniProt P41365)
T1 sequence (P41365 26-342): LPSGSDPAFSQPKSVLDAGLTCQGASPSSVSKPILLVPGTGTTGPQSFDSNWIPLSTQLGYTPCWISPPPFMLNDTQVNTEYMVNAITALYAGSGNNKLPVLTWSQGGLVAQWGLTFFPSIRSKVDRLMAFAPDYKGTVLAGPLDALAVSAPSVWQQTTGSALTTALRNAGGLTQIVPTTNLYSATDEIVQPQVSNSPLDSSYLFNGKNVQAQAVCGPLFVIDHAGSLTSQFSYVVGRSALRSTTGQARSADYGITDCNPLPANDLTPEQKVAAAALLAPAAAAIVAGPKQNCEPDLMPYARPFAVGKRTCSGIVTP
Assay: kinetic resolution, yield
Format: biochemical
Conditions: free CAL-B; substrate not given

CC(=O)O[C@H](C)c1cccc2ccccc12 [compound 8, product 8]
kinetic resolution, yield: it resulted in a notably lower yield in comparison to free CAL-B
